Like-named read-outs stand apart in the source and are kept apart here.
Legend:
[1] = system: L. donovani promastigote forms; assay: In vitro activity against promastigote forms; assay type: cell-based; conditions: for Selectivity Index Promastigote Forms: J774.2 Macrophage IC50/Parasite IC50; for IC50: 48 h, 27 °C, means of three separated experiments, read-out: Compound IC50 Promastigote Forms
Experimental: (§1) Three Leishmania species were studied, each one as a pathogenic agent for each clinical form: L. donovani for VL, L. infantum for CL, and L. braziliensis for ML.
(§2) In order to perform this experiment, promastigotes were harvested in 24-well microplates and different drug concentrations were added in order to reach 12.5, 25, 50, and 100 µM and maintained at 27 °C for 48 h. They were counted after that time was elapsed in a Neubauer haemocytrometric chamber.

[2] = system: L. infantum promastigote forms; assay: In vitro activity against promastigote forms; assay type: cell-based; conditions: for Selectivity Index Promastigote Forms: J774.2 Macrophage IC50/Parasite IC50; for IC50: 48 h, 27 °C, means of three separate experiments, read-out: Compound IC50 Promastigote Forms
Experimental: as §1, §2

[3] = system: L. braziliensis promastigote forms; assay: In vitro activity against promastigote forms; assay type: cell-based; conditions: for Selectivity Index Promastigote Forms: J774.2 Macrophage IC50/Parasite IC50; for IC50: 48 h, 27 °C, means of three separate experiments, read-out: Compound IC50 Promastigote Forms
Experimental: as §1, §2

[4] = system: J774.2 macrophage cell line; assay: Macrophage cytotoxicity; assay type: cell-based; conditions: J774.2 macrophages, means of three separate experiments, read-out: Macrophage Toxicity IC50
Text: Macrophages are cells naturally infected by Leishmania parasites. For that reason, they were used as host cell models, specifically the J774.2 macrophage cell line [European Collection of Authenticated Cell Cultures (ECACC) number 91051511]. Cells were used to test the cytotoxicity of the new compound (establishing IC50 via testing different drug concentrations on cells) and they were used for parasite infectivity assays.

L. infantum = assay: Metabolite excretion (1H-NMR of supernatants); assay type: cell-based; conditions: IC25, 72 h, vs untreated
Text: (§3) Active compounds can trigger metabolic alterations within parasite mitochondria. Those alterations can be proven by observing alterations in the excreted metabolites quantity. Trypanosomatids excrete different metabolites to the medium in order to get rid of the carbonate skeleton instead of oxidizing glucose to CO2 and water as vertebrates do. Each metabolite is produced in a certain area of the mitochondrion and by a certain enzyme, thus, it can be inferred that these particular zones or enzymes are being affected by drug action. For this experiment, cultures of each species with an initial concentration of 5 × 10^5 cells/mL were stored at 27 °C for 72 h with IC25 as the test dosage. After this time elapsed, cultures were centrifuged at 400× g for 10 min and supernatants were collected and examined by ^1H-NMR.

L. braziliensis [5] = assay: Metabolite excretion (1H-NMR of supernatants); assay type: cell-based; conditions: IC25, 72 h, vs untreated
Text: as §3

L. braziliensis [6] = assay: Infectivity assay in J774.2 macrophages; assay type: cell-based; conditions: test dosage IC25, 10 days
Text: Following a similar method as the described one in the amastigote experiment, macrophages were harvested and infected with promastigotes in their stationary phase. The test dosage was IC25 for this experiment. The coverslips were collected every 2 days for 10 days and counted in order to determine if drugs affected promastigote infection and amastigote division within the cells by measuring the infection rate (percentage of infected cells) and amastigote number per infected cell.

[7] = system: L. braziliensis amastigote forms; assay: In vitro activity against amastigote forms in J774.2 macrophages; assay type: cell-based; conditions: for Selectivity Index Amastigote Forms: J774.2 Macrophage IC50/Parasite IC50; for IC50: in J774.2 macrophages, means of three separate experiments, read-out: Compound IC50 Amastigote Forms
Experimental: (§4) A similar method was used for the amastigote assay. First, J774.2 macrophages were harvested in 24-well microplates with round coverslips at the bottom, where cells will attach. Once cells are fixated, they are infected with promastigotes (10 per each macrophage cell) and compounds were added to reach the same final concentrations as in the previous experiment. After one day, promastigotes transform into amastigotes and microplates are maintained for two days at 37 °C. Once that time is elapsed, coverslips are collected and fixated to a microscope slide and dyed with Giemsa. Amastigotes are then counted using a microscope from a total of 200 random macrophages.

[8] = system: L. infantum amastigote forms; assay: as above; assay type: cell-based; conditions: for Selectivity Index Amastigote Forms: J774.2 Macrophage IC50/Parasite IC50; for IC50: in J774.2 macrophages, means of three separate experiments, read-out: Compound IC50 Amastigote Forms
Experimental: as §4

L. donovani = assay: Metabolite excretion (1H-NMR of supernatants); assay type: cell-based; conditions: IC25, 72 h, vs untreated
Text: as §3

[9] = system: L. donovani amastigote forms; assay: In vitro activity against amastigote forms in J774.2 macrophages; assay type: cell-based; conditions: for Selectivity Index Amastigote Forms: J774.2 Macrophage IC50/Parasite IC50; for IC50: in J774.2 macrophages, means of three separated experiments, read-out: Compound IC50 Amastigote Forms
Experimental: as §4

L. infantum Fe-SOD = assay: SOD inhibition assay (Beyer and Fridovich method); assay type: biochemical; conditions: L. infantum excreted Fe-SOD
Text: Superoxide dismutase (SOD) is a key enzyme for cell survival against oxidative stress. Host cells induce oxidative bursts to create reactive oxygen species (ROS) within parasite cells that are toxic to them. For that reason, Leishmania cells rely on SOD to counteract this defense. While vertebrate SOD is linked to a copper, zinc (Cu/Zn-SOD), or manganese atom (Mn-SOD), trypanosomatid SOD is linked to an iron atom (Fe-SOD). This difference makes SOD a perfect target for drugs: if they are able to reduce its activity, cell survival will be compromised. For testing, if drugs are able to reduce this enzymatic activity, promastigotes are largely harvested and then stressed in the same culture medium without calf serum, in order to trigger stress and make them excrete SOD. This SOD is collected and semi-purified by a method described in Martín-Montes et al. 2017 [10]. Excreted Fe-SOD was mixed with the different reagents of the Beyer and Fridovich method and measured in a UV spectrophotometer twice. The second measurement took place after 10 min under direct light and constant stirring. Commercial human SOD (Cu/Zn-SOD) (Sigma®, St. Louis, MO, USA) activity was also measured for comparison.

| Molecule | Selectivity Index Promastigote Forms [1] | IC50 ([1]; Leishmania donovani) | Selectivity Index Promastigote Forms [2] | IC50 ([2]; Leishmania infantum) | Selectivity Index Promastigote Forms [3] | IC50 ([3]; Leishmania braziliensis) | IC50 ([4]; Mus musculus) | other results |
| --- | --- | --- | --- | --- | --- | --- | --- | --- |
| c1c2n[nH]c1CNCCNCCCNCCNC2 [PZ232] | 27 | 25 ± 0.8 µM | 52 | 13 ± 0.4 µM | 116 | 5.8 ± 0.2 µM | 674 ± 66.3 µM | Acetate production and excretion variation (L. infantum): -11.80%; D-lactate production and excretion variation (L. infantum): -11.58%; L-alanine production and excretion variation (L. infantum): -13.15%; Pyruvate production and excretion variation (L. infantum): -14.03%; Succinate production and excretion variation (L. infantum): -16.36%; Acetate production and excretion variation (L. braziliensis [5]): -38.64%; D-lactate production and excretion variation (L. braziliensis [5]): -38.98%; L-alanine production and excretion variation (L. braziliensis [5]): -37.91%; Pyruvate production and excretion variation (L. braziliensis [5]): -35.69%; Succinate production and excretion variation (L. braziliensis [5]): -37.83%; Amastigote number/infected cell, percentage in plot key (reduction vs control) (L. braziliensis [6]): 32.4%; Selectivity Index Amastigote Forms [7]: 421; IC50 ([7]; Leishmania braziliensis): 1.6 ± 0.6 µM; Selectivity Index Amastigote Forms [8]: 138; IC50 ([8]; Leishmania infantum): 4.9 ± 0.4 µM |
| c1c2n[nH]c1CNCCCNCCCNCCCNC2 [PZ333] | 704 | 1.4 ± 0.3 µM | 14 | 70 ± 0.7 µM | 63 | 15.7 ± 0.5 µM | 985 ± 72.8 µM | Acetate production and excretion variation (L. donovani): 33.66%; D-lactate production and excretion variation (L. donovani): 29.85%; L-alanine production and excretion variation (L. donovani): 32.65%; Pyruvate production and excretion variation (L. donovani): 37.88%; Succinate production and excretion variation (L. donovani): 42.10%; Selectivity Index Amastigote Forms [9]: 579; IC50 ([9]; Leishmania donovani): 1.7 ± 0.5 µM |
| c1cc2nc(c1)CNCCCNCCCCNC2 [Py34] | 20 | 28.4 ± 0.6 µM | 10 | 56.7 ± 2.6 µM | 19 | 29.2 ± 0.8 µM | 569 ± 45.8 µM |  |
| c1cc2nc(c1)CNCCCNCCCNCCCNC2 [Py333] | 1549 | 0.2 µM | 10 | 30.4 ± 1.4 µM | 12 | 26.2 ± 1.1 µM | 310 ± 43.8 µM | Selectivity Index Amastigote Forms [9]: 18; IC50 ([9]; Leishmania donovani): 16.8 ± 0.5 µM |
| c1cc2nc(c1)CNCCCNCCNCCNCCCNC2 [Py3223] | 3 | 52.5 ± 2.1 µM | 1 | 192 ± 5.8 µM | 1 | 291 ± 3.8 µM | 165 ± 4.9 µM |  |
| c1cc2nc(c1)CNCCCNCCNCCNCCNCCCNC2 [Py32223] |  | 1000 ± 78.4 µM | 1 | 93.4 ± 3.7 µM |  | 442 ± 5.8 µM | 57.7 ± 1.9 µM |  |
| c1cc2nc(c1)CNCCCNCCNCCCNCCNCCCNC2 [Py32323] | 1 | 130 ± 9.5 µM | 1 | 90.6 ± 3.8 µM |  | 1630 ± 76.4 µM | 85.4 ± 4.6 µM |  |
| c1cc2nc(c1)CNCCCNCCCNCCNCCCNCCCNC2 [Py33233] | 2 | 583 ± 6.9 µM | 3 | 484 ± 10.7 µM | 3 | 507 ± 8.3 µM | 1290 ± 77.5 µM |  |
| c1cc2nc(c1)CNCCCNCCCNCCCNCCCNCCCNC2 [Py33333] | 21 | 70.5 ± 5.2 µM | 176 | 8.51 ± 0.6 µM | 41 | 36.5 ± 1.1 µM | 1500 ± 75.3 µM | Acetate production and excretion variation (L. infantum): -20.61%; D-lactate production and excretion variation (L. infantum): -19.58%; L-alanine production and excretion variation (L. infantum): -19.83%; Pyruvate production and excretion variation (L. infantum): -22.89%; Succinate production and excretion variation (L. infantum): -20.30%; Fe-SOD activity inhibition (in words) (L. infantum Fe-SOD): no inhibition; Selectivity Index Amastigote Forms [8]: 882; IC50 ([8]; Leishmania infantum): 1.7 ± 0.2 µM |
| c1cc2cc(c1)CNCCNCCCNCCNC2 [mB232] | 4 | 171 ± 10.4 µM | 3 | 205 ± 30.7 µM | 7 | 91.7 ± 3.7 µM | 667 ± 88.5 µM |  |
| c1cc2cc(c1)CNCCCNCCNCCCNC2 [mB323, 3,7,10,14 Tetraaza-1(2,6)-benzenacyclopentadecaphane] | 3 | 158 ± 7.3 µM | 4 | 95.6 ± 4.8 µM | 186 | 2.3 ± 0.5 µM | 428 ± 22.6 µM | Selectivity Index Amastigote Forms [7]: 25; IC50 ([7]; Leishmania braziliensis): 17.1 ± 1.1 µM |
| c1cc2cc(c1)CNCCCNCCCNCCCNC2 [mB333, 3,7,11,15 Tetraaza-1(2,6)-benzenacyclohexadecaphane] | 9 | 106 ± 7.5 µM | 11 | 86.1 ± 3.7 µM | 4 | 210 ± 5.3 µM | 916 ± 51.6 µM |  |
| c1cc2cc(c1)CNCCCNCCNCCNCCCNC2 [mB3223] | 11 | 126 ± 3.8 µM | 23 | 63.4 ± 2.4 µM | 93 | 15.6 ± 0.7 µM | 1450 ± 89.7 µM |  |
| c1cc2ccc1CNCCNCCCNCCNC2 [pB232] | 1 | 743 ± 23.6 µM | 2 | 367 ± 10.5 µM | 26 | 27.2 ± 0.9 µM | 719 ± 20.5 µM |  |
| Glucantime [reference compound] | 7 |  | 3.5 |  | 3 |  |  | IC50 [1]: 23.7 ± 0.8 µM; IC50 [2]: 50.1 ± 2.3 µM; IC50 [3]: 51.4 ± 2.5 µM; IC50 [4]: 176 ± 10.6 µM; Selectivity Index Amastigote Forms [7]: 1.7; IC50 [7]: 103 µM; Selectivity Index Amastigote Forms [9]: 2; IC50 [9]: 76.4 ± 4.1 µM; Selectivity Index Amastigote Forms [8]: 2; IC50 [8]: 84.6 ± 4.3 µM |

— PMC10059905, “The Bioactivity of Xylene, Pyridine, and Pyrazole Aza Macrocycles against Three Representative Leishmania Species” (Pharmaceutics, 2023)
